# From patent US12606541B2, “PPARg modulators and methods of use” (Eisai R&D Management Co., Ltd., priority 2020, dated 2026)
# Where two headings read alike, the source gives them in different places.
# What was measured:
# [1] = biological target: T1, His6-TEV-PPARγ-(234-505) (Homo sapiens, UniProt P37231); assay: TR-FRET Assay to Measure Co-R Peptide Recruitment to PPARγ; assay type: biochemical; conditions: Co-R peptide (SMRT-ID2) recruitment; top final concentration 20 μM; read-out: TR-FRET i-Ag; AC50
# T1 construct: The His6-TEV-PPARγ-(234-505) protein for assay was expressed and purified; TEV cleavage site (N); made in house
# T1 sequence (P37231 234-505): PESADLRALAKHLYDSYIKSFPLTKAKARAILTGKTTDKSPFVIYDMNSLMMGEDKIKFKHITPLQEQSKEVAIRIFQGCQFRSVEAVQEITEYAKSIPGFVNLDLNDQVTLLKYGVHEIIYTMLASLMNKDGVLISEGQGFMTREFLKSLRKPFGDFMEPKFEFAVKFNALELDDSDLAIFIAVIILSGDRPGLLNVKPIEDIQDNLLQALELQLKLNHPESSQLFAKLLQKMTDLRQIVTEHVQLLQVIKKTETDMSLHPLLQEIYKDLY
# Summary of the method: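 His-tagged PPARγ (or controls) was preincubated with compound for 20 minutes at room temperature, then 5 nM anti-His terbium antibody and 200 nM FITC-labeled SMRT-ID2 corepressor peptide (final) were added for a further hour. TR-FRET signal was normalized to percent response using 500 nM T0070907 and DMSO controls.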
# [2] = test system: UM-UC-9 engineered cells; assay: Cell proliferation / short-term viability assay, CellTiter-Glo 144 h; assay type: cell-based, human; conditions: read-out: CTGlo 144 h UMUC9.5, G150
# Procedure: Cell Seeding for Proliferation Assay
# UM-UC-9 engineered cells were cultured in Dulbecco's Modified Eagle Medium (DMEM) supplemented with 10% FBS, 25 mM glucose (high glucose), 4.0 mM L-glutamine, 2.0 mM GlutaMAX™, 1.0 mM pyruvate, 1.0% non-essential amino acids (NEAA) in a 95% humidified incubator at 37° C. with 5% CO2. Cell banks of UM-UC-9 engineered assay-ready cells (ARCs) were prepared from a very active growth stage. Vials of ARCs containing approximately 5×10^6 cells per vial were stored in liquid nitrogen vapor phase cryostorage until use.
# For making assay plates, ARCs were recovered from cryostorage, strained in a […] cell strainer, verified for cell viability >90% and counted using a cell counter (Cellometer Auto 1000, Nexelom). Each cell line was seeded into 384-well plates (50 μl/well) using DMEM medium at a density previously determined to be in log growth phase 7 days post-seeding (500 cells/well) using a bulk reagent dispenser (Multidrop™ Combi, Thermo Scientific) with a large-bore plastic-tip cassette pre-sanitized with 70% ethanol. One plate of cells was designated as the pretreatment time-zero (T0) control. Freshly seeded plates were allowed to sit lidded for 30 minutes within a biosafety cabinet for cells to settle distributed within the plate wells uniformly and then placed into an automated incubator (STX110, Liconic) at 37° C., 5% CO2, and 95% relative humidity.
# Preparation of Test Compound in Assay-Ready Plate
# Compounds were stored in a low-temperature sample archive as 10 mM dimethyl sulfoxide (DMSO) solutions at −20° C. under reduced humidity (−45° C. dew point) and protected from light. All samples in the automated archive are stored in 2D barcoded polypropylene tubes, tracked through a laboratory information management system (LIMS), and have been verified for identity and purity by NMR (Chemistry, H3 Biomedicine) and by LCMS (Analytical Chemistry, H3 Biomedicine) at the time of sample registration. Identity by mass matching and purity are again verified at the time of sample request fulfillment by redundant LCMS methods (acidic and basic separation protocols; Analytical Chemistry, H3 Biomedicine). Samples retrieved from low-temperature archive storage were solubilized by heated sonication (Bransonic® Ultrasonic Bath, Branson), transferred (Microlab Starlet, Hamilton) and serially-diluted (Viaflo Assist, Integra) by low-volume liquid handlers, and tracked in LIMS by automation log files to create a ID barcoded master dose-response plate (MDR) to serve as a standard source for all assay-ready plates (ARP) used within an experiment. ARPs prepared by acoustic transfer (ATS-100, EDC) of nL volumes from the MDR source were heat-sealed (PlateLoc, Agilent) and stored at −20° C. prior to use (<7 days from production). Tracking of liquid transfers via acoustic dispenser log files were used to update the LIMS system for all ARP plate maps.
# Measurement of Pretreatment Control Cells and Sample Anti-Proliferative Effects on Treated Cells
# On day 0 (pretreatment cells) or day 7 (treated cells), a cell proliferation assay was performed using an automated robotic assay platform (ACell, High-Res Biosolutions). Cell ARP's were removed from incubation, their plate lid discarded, and using a bulk reagent dispenser (Multidrop™ Combi, Thermo Scientific with a small-bore metal-tip cassette) 25 μL (1/2 volume) of Cell Titer-Glo® 2.0 Cell Viability Assay reagent (Promega) was added to wells of columns 1-23 (column 24 will be used as plate background or positive control). Cell ARP's were incubated at room temperature in an automation hotel position for a total of 1.0 minute while the next plate was delivered to the bulk reagent dispenser and then lid-free cell ARP's were returned to incubate at 37° C. for 2.5 hours. […]
Compound,AC50 [1],IC50 [2],"IC50 ([2]; Homo sapiens, UM-UC-9, 144 h)"
"COc1cc(-c2cc(C(=O)N3CCC(C(=O)NCC4CCc5n[nH]cc5C4)CC34CC4)[nH]n2)c(F)cn1 (mixture of isomers) [Example 341, (S)-4-(3-(5-fluoro-2-methoxypyridin-4-yl)-1H-pyrazole-5-carbonyl)-N—(((R)-4,5,6,7-tetrahydro-2H-indazol-5-yl)methyl)-4-azaspiro[2.5]octane-7-carboxamide and (S)-4-(3-(5-fluoro-2-methoxypyridin-4-yl)-1H-pyrazole-5-carbonyl)-N—(((S)-4,5,6,7-tetrahydro-2H-indazol-5-yl)methyl)-4-azaspiro[2.5]octane-7-carboxamide]",0.005 µM,0.0103 µM,–
"COc1cc(-c2cc(C(=O)N3CCC(C(=O)NCC4CCn5cncc5C4)CC34CC4)[nH]n2)c(F)cn1 (mixture of isomers) [Example 342, (8)-4-(3-(5-fluoro-2-methoxypyridin-4-yl)-1H-pyrazole-5-carbonyl)-N—(((R)-5,6,7,8-tetrahydroimidazo[1,5-a]pyridin-7-yl)methyl)-4-azaspiro[2.5]octane-7-carboxamide and (S)-4-(3-(5-fluoro-2-methoxypyridin-4-yl)-1H-pyrazole-5-carbonyl)-N—(((S)-5,6,7,8-tetrahydroimidazo[1,5-a]pyridin-7-yl)methyl)-4-azaspiro[2.5]octane-7-carboxamide]",0.0783 µM,1.13 µM,–
"COc1cc(-c2cc(C(=O)N3CCC(C(=O)NCC4CCn5c(C)nnc5C4)CC34CC4)[nH]n2)c(F)cn1 (mixture of isomers) [Example 346, (S)-4-(3-(5-fluoro-2-methoxypyridin-4-yl)-1H-pyrazole-5-carbonyl)-NVR)-3-methyl-5,6,7,8-tetrahydro-[1,2,4]triazolo[4,3-a]pyridin-7-yl)methyl)-4-azaspiro[2.5]octane-7-carboxamide and (8)-4-(3-(5-fluoro-2-methoxypyridin-4-yl)-1H-pyrazole-5-carbonyl)-N—(((S)-3-methyl-5,6,7,8-tetrahydro-[1,2,4]triazolo[4,3-a]pyridin-7-yl)methyl)-4-azaspiro[2.5]octane-7-carboxamide]",0.371 µM,> 10 µM,–
COc1cc(-c2cc(C(=O)N3CCC(NC(=O)C4CCC(O)(C(F)(F)F)CC4)CC34CC4)n[nH]2)c(F)cn1 (mixture of isomers) [Example 347],0.317 µM,1.86 µM,–
"COc1cc(-c2cc(C(=O)N3CCC(C(=O)NCC4CCc5nccn5C4)CC34CC4)n[nH]2)c(F)cn1 (mixture of isomers) [Example 356, (S)-4-(5-(5-fluoro-2-methoxypyridin-4-yl)-1H-pyrazole-3-carbonyl)-N—(((S)-5,6,7,8-tetrahydroimidazo[1,2-a]pyridin-6-yl)methyl)-4-azaspiro[2.5]octane-7-carboxamide and (S)-4-(5-(5-fluoro-2-methoxypyridin-4-yl)-1H-pyrazole-3-carbonyl)-N—(((R)-5,6,7,8-tetrahydroimidazo[1,2-a]pyridin-6-yl)methyl)-4-azaspiro[2.5]octane-7-carboxamide]",0.113 µM,4.79 µM,–
"COc1cc(-c2cc(C(=O)N3CCC(C(=O)N[C@H]4CC[C@@](O)(C(F)(F)F)CC4)C[C@@H]3C(F)(F)F)n[nH]2)c(F)cn1 (mixture of isomers) [Example 368, (2R,4R)-1-(5-(5-fluoro-2-methoxypyridin-4-yl)-1H-pyrazole-3-carbonyl)-N-((1r,4R)-4-hydroxy-4-(trifluoromethyl)cyclohexyl)-2-(trifluoromethyl)piperidine-4-carboxamide and (2R,4S)-1-(5-(5-fluoro-2-methoxypyridin-4-yl)-1H-pyrazole-3-carbonyl)-N-((1r,4S)-4-hydroxy-4-(trifluoromethyl)cyclohexyl)-2-(trifluoromethyl)piperidine-4-carboxamide]",0.244 µM,–,0.497 µM
COc1cc(-c2cc(C(=O)N3CC[C@H](C(=O)NCC4CCS(=N)(=O)C4(C)C)CC34CC4)n[nH]2)c(F)cn1 (mixture of isomers) [Example 372-A],0.696 µM,–,> 10 µM
"COc1cc(-c2cc(C(=O)N3CCC(C(=O)NC(C)c4ncc(F)cc4Cl)CC34CC4)n[nH]2)c(F)cn1 (mixture of isomers) [Example 377, (S)—N—((R)-1-(3-chloro-5-fluoropyridin-2-yl)ethyl)-4-(5-(5-fluoro-2-methoxypyridin-4-yl)-1H-pyrazole-3-carbonyl)-4-azaspiro[2.5]octane-7-carboxamide and (S)—N—((S)-1-(3-chloro-5-fluoropyridin-2-yl)ethyl)-4-(5-(5-fluoro-2-methoxypyridin-4-yl)-1H-pyrazole-3-carbonyl)-4-azaspiro[2.5]octane-7-carboxamide]",0.0202 µM,0.0259 µM,–
"COc1cc(-c2cc(C(=O)N3CCC(C(=O)NC4C(C)(C)C(N5CCC(F)(F)C5)C4(C)C)CC34CC4)n[nH]2)c(F)cn1 (mixture of isomers) [Example 378, (S)—N-((1s,3R)-3-(3,3-difluoropyrrolidin-1-yl)-2,2,4,4-tetramethylcyclobutyl)-4-(5-(5-fluoro-2-methoxypyridin-4-yl)-1H-pyrazole-3-carbonyl)-4-azaspiro[2.5]octane-7-carboxamide and (S)—N-((1r,3S)-3-(3,3-difluoropyrrolidin-1-yl)-2,2,4,4-tetramethylcyclobutyl)-4-(5-(5-fluoro-2-methoxypyridin-4-yl)-1H-pyrazole-3-carbonyl)-4-azaspiro[2.5]octane-7-carboxamide]",0.13 µM,0.224 µM,–
"COc1cc(-c2cc(C(=O)N3CCC(C(=O)NC4CN(CC(C)(C)F)CC4(F)F)CC34CC4)n[nH]2)c(F)cn1 (mixture of isomers) [Example 379, (S)—N—((S)-4,4-difluoro-1-(2-fluoro-2-methylpropyl)pyrrolidin-3-yl)-4-(5-(5-fluoro-2-methoxypyridin-4-yl)-1H-pyrazole-3-carbonyl)-4-azaspiro[2.5]octane-7-carboxamide and (S)—N—((R)-4,4-difluoro-1-(2-fluoro-2-methylpropyl)pyrrolidin-3-yl)-4-(5-(5-fluoro-2-methoxypyridin-4-yl)-1H-pyrazole-3-carbonyl)-4-azaspiro[2.5]octane-7-carboxamide]",0.0122 µM,0.011 µM,–
"COc1cc(-c2cc(C(=O)N3CCC(C(=O)NC4CCOc5ccc(C)nc54)CC34CC4)n[nH]2)c(F)cn1 (mixture of isomers) [Example 380, (S)-4-(5-(5-fluoro-2-methoxypyridin-4-yl)-1H-pyrazole-3-carbonyl)-N—((R)-6-methyl-3,4-dihydro-2H-pyrano[3,2-b]pyridin-4-yl)-4-azaspiro[2.5]octane-7-carboxamide and (S)-4-(5-(5-fluoro-2-methoxypyridin-4-yl)-1H-pyrazole-3-carbonyl)-N—((S)-6-methyl-3,4-dihydro-2H-pyrano[3,2-b]pyridin-4-yl)-4-azaspiro[2.5]octane-7-carboxamide]",0.0306 µM,0.0437 µM,–
